Laboratory results: patent publication US20100063026A1, “ANTIBACTERIAL QUINOLINE DERIVATIVES” (priority 2007, published 2010)
≈ marks a conversion by molar mass, not a printed value.

How the values were obtained:
[1] = tested on: Staphylococcus aureus (ATCC29213); assay: Microtitre plate IC90 determination against non-mycobacterial strains: S. aureus; format: cell-based; conditions: 90% inhibitory concentration for bacterial growth, 37° C., resazurin fluorescence; for IC90 STA 1 B29213: 24 hours; for IC90: Staphylococcus aureus, ATCC29213, 24 h, read-out: IC90 STA 1 B29213
Procedure: (§1) The bacteria used in this study were grown overnight in flasks containing 100 ml Mueller-Hinton Broth (Becton Dickinson-cat. no. 275730) in sterile de-ionized water, with shaking, at 37° C. Stocks (0.5 ml/tube) were stored at -70° C. until use. Bacteria titrations were performed in microtiter plates to detect the TCID50, in which the TCID50 represents the dilution that gives rise to bacterial growth in 50% of inoculated cultures. In general, an inoculum level of approximately 100 TCID50 was used for susceptibility testing. […] Therefore resazurin (0.6 mg/ml) was added in a volume of 20 μl to all wells 3 hours after inoculation, and the plates were re-incubated overnight. A change in colour from blue to pink indicated the growth of bacteria.

[2] = tested on: Streptococcus pneumoniae (ATCC6305); assay: Microtitre plate IC90 determination against non-mycobacterial strains: S. pneumoniae; format: cell-based; conditions: 90% inhibitory concentration for bacterial growth, 37° C., resazurin fluorescence; for IC90 SPN 1 6305: 24 hours; for IC90: Streptococcus pneumoniae, ATCC6305, 24 h, read-out: IC90 SPN 1 6305
Procedure: as §1

M. smegmatis ATCC607 = assay: In-vitro anti-bacterial activity against strain M. smegmatis ATCC607; conditions: for IC90 MSM 1 ATCC607: 90% inhibitory concentration for bacterial growth, 48 hours, 37° C., Alamar Blue fluorescence; for IC90: Mycolicibacterium smegmatis, ATCC607, 48 h, read-out: IC90 MSM 1 ATCC607, 90% inhibitory concentration for bacterial growth, 37° C., Alamar Blue fluorescence

SMILES	IC90 STA 1 B29213 [1]	IC90 SPN 1 6305 [2]	IC90 MSM 1 ATCC607 (M. smegmatis ATCC607)	IC90 [2]	IC90 (M. smegmatis ATCC607)	IC90 [1]	melting point
COc1nc2ccc(Br)cc2cc1C(c1ccccc1)C(O)(CCCCN1CCN(C2CCN(Cc3ccccc3)C2)CC1)c1ccc2ccccc2c1 (single isomer, unassigned) [Compound 32]	2.5 µg/mL (≈ 3.19 µM)	2.5 µg/mL (≈ 3.19 µM)	5.6 µg/mL (≈ 7.14 µM)				
COc1nc2ccc(Br)cc2cc1C(c1ccccc1)C(O)(CCCCc1ccccc1)CCCCN1CC2CC1CN2Cc1ccccc1 (single isomer, unassigned) [Compound 16]	7.3 µg/mL (≈ 9.96 µM)			1.5 µg/mL (≈ 2.05 µM)	0.6 µg/mL (≈ 0.819 µM)		
COc1ccc(N2CCN(CCCCC(O)(c3ccc4ccccc4c3)C(c3ccccc3)c3cc4cc(Br)ccc4nc3OC)CC2)cc1 (single isomer, unassigned) [Compound 26]				18.4 µg/mL (≈ 25.2 µM)	18.4 µg/mL (≈ 25.2 µM)	18.4 µg/mL (≈ 25.2 µM)	
COc1nc2ccc(Br)cc2cc1C(c1ccccc1)C(O)(CCCCN1CCC(N2CCCCC2)CC1)c1ccc2ccccc2c1 (single isomer, unassigned) [Compound 29]	5.0 µg/mL (≈ 7.07 µM)	0.8 µg/mL (≈ 1.13 µM)	2.2 µg/mL (≈ 3.11 µM)				177 °C
COc1nc2ccc(Br)cc2cc1C(c1ccccc1)C(O)(CCCCN1CC2CC1CN2Cc1ccccc1)CCc1ccccc1 (single isomer, unassigned) [Compound 13]	2.2 µg/mL (≈ 3.12 µM)	2.5 µg/mL (≈ 3.55 µM)	5.6 µg/mL (≈ 7.95 µM)				
COc1nc2ccc(Br)cc2cc1C(c1ccccc1)C(O)(CCCCc1ccccc1)CCCCN1CC2CC1CN2Cc1ccccc1 (single isomer, unassigned) [Compound 17]	2.3 µg/mL (≈ 3.14 µM)	0.8 µg/mL (≈ 1.09 µM)	0.7 µg/mL (≈ 0.955 µM)				
COc1nc2ccc(Br)cc2cc1C(c1ccccc1)C(O)(CCCCN1CCCN(C)CC1)c1ccc2ccccc2c1 (centres unmarked) [Compound 35a]	2.1 µg/mL (≈ 3.22 µM)	0.4 µg/mL (≈ 0.613 µM)	0.9 µg/mL (≈ 1.38 µM)				
COc1nc2ccc(Br)cc2cc1C(c1ccccc1)C(O)(CCCCN1CCC(N2CCCCC2)CC1)c1ccc2ccccc2c1 (single isomer, unassigned) [Compound 28]	2.2 µg/mL (≈ 3.11 µM)	2.8 µg/mL (≈ 3.96 µM)			2.5 µg/mL (≈ 3.54 µM)		
COc1nc2ccc(Br)cc2cc1C(c1ccccc1)C(O)(CCCCN1CC2CC1CN2Cc1ccccc1)CCCc1ccccc1 (single isomer, unassigned) [Compound 15]	11.4 µg/mL (≈ 15.9 µM)	2.6 µg/mL (≈ 3.62 µM)	4.0 µg/mL (≈ 5.56 µM)				
COc1nc2ccc(Br)cc2cc1C(c1ccccc1)C(O)(CCCCN1CC2CC1CN2CCc1ccccc1)c1ccc2ccccc2c1 (single isomer, unassigned) [Compound 24]	11.7 µg/mL (≈ 15.8 µM)	2.1 µg/mL (≈ 2.83 µM)			2.3 µg/mL (≈ 3.1 µM)		
COc1nc2ccc(Br)cc2cc1C(c1ccc(Cl)cc1)C(O)(CCCCN1CC2CC1CN2Cc1ccccc1)c1ccc2ccccc2c1 (single isomer, unassigned) [Compound 37]	2.7 µg/mL (≈ 3.55 µM)	0.5 µg/mL (≈ 0.657 µM)	2.1 µg/mL (≈ 2.76 µM)				
COc1nc2ccc(Br)cc2cc1C(c1ccccc1)C(O)(CCCCN1CC2CC1CN2Cc1ccccc1)c1ccc2ccccc2c1 (single isomer, unassigned) [Compound 20]	11.5 µg/mL (≈ 15.8 µM)		2.3 µg/mL (≈ 3.16 µM)	0.6 µg/mL (≈ 0.826 µM)			
COc1nc2ccc(Br)cc2cc1C(c1ccccc1)C(O)(CCCCN1CCCNCC1)c1ccccc1 (single isomer, unassigned) [Compound 47]				0.9 µg/mL (≈ 1.53 µM)	1.9 µg/mL (≈ 3.23 µM)	1.9 µg/mL (≈ 3.23 µM)	
COc1nc2ccc(Br)cc2cc1C(c1ccccc1)C(O)(CCCCN1CCCNCC1)c1ccc2ccccc2c1 (single isomer, unassigned) [Compound 33]				0.5 µg/mL (≈ 0.783 µM)	0.4 µg/mL (≈ 0.626 µM)	2 µg/mL (≈ 3.13 µM)	119 °C
COc1nc2ccc(Br)cc2cc1C(c1ccccc1)C(O)(CCCCN1CCCN(C)CC1)c1ccc2ccccc2c1 (centres unmarked) [Compound 34d]	2.1 µg/mL (≈ 3.22 µM)	0.4 µg/mL (≈ 0.613 µM)	2.1 µg/mL (≈ 3.22 µM)				
COc1nc2ccc(Br)cc2cc1C(c1ccccc1)C(O)(CCCCN1CC2CC1CN2Cc1ccccc1)c1ccc2ccccc2c1 (single isomer, unassigned) [Compound 21]	2.3 µg/mL (≈ 3.16 µM)	0.6 µg/mL (≈ 0.826 µM)	5.8 µg/mL (≈ 7.98 µM)				
COc1nc2ccc(Br)cc2cc1C(c1ccccc1)C(O)(CCCCN1CCCN(C)CC1)c1ccc2ccccc2c1 (centres unmarked) [Compound 35c]	2.1 µg/mL (≈ 3.22 µM)	0.4 µg/mL (≈ 0.613 µM)	1.5 µg/mL (≈ 2.3 µM)				
